Values of other authors as cited in patent US20020004528A1, “Method for the treatment of insomnia” (priority 1998, published 2002).

Settings: one study mentioned in U.S. Pat. No. 5,510,381 (use of gabapentin to treat mania)

For “1-(aminomethyl)-cyclohexane acetic acid [gabapentin]”, the “effect on delta-wave (deep) sleep” value is listed as “enhance delta-wave (deep) sleep”.
